From patent US20140235520A1, “Perfume Compositions” (Givaudan Nederland Services B.V., priority 2005, published 2014)

Tests used:
[1] = test system: Escherichia coli ATCC 10536; assay: Standardised biofilm detachment assay (96 well microtitre plate, crystal violet OD540) in quarter strength GPC base Formula A; type: cell-based; settings: for Group (PDV class: active / non-active / antagonist to biofilm detachment): ingredient as 1 of 4 equal-weight ingredients (other 3 Group B), perfume 0.25% w/w in quarter strength GPC base Formula A, 20 min 21° C., flavour ingredients classed in toothpaste base
[2] = test system: Escherichia coli ATCC 10536; assay: Biofilm detachment assay in quarter strength modified transparent silica toothpaste base (Formula B); type: cell-based; settings: positive control, Example 3
Protocol: The procedure described in example 1(a) was repeated but wherein flavour compositions comprising flavour ingredients from the oral care palette to be tested were prepared. The compositions were added to a modified transparent silica toothpaste base (diluted to quarter strength) together with de-ionised water to produce test mixtures with the composition as set out in Formula B below. [table] A percentage detachment value (PDV) for each test mixture was then calculated using the following formula: PDV=100−([OD540 for Test Mixture÷OD540 for Water Control]×100). […] The PDV scores were therefore adjusted to account for base influences on flavour behaviour and Detachment Index (DI) values quoted for each flavour composition.

Structure (SMILES)	Group (PDV class: active / non-active / antagonist to biofilm detachment) [1]	PDV ([1]; positive control, 2% w/w in deionised water)	PDV [2]
CC1(C)CCCC2(C)C1CCC1(C)OCCC12 (stereo not drawn) [3a,6,6,9a-tetramethyldodecahydronaphtho[2,1-{b}]furan]	B (Group B materials that are non-active to biofilm detachment are defined as those having a PDV (as defined above) of less than 9 and greater than 0)	–	–
CCCCCCCCCCCCOS(=O)(=O)[O-].[Na+] [SLS, sodium lauryl sulphate, reference compound]	–	about 80%	about 80%
COc1ccc(CC(C)C=O)cc1 (stereo not drawn) [2-methyl-3-[4-(methyoxy)phenyl]propanal]	C (Group C materials that are antagonistic to biofilm detachment are defined as those having a PDV (as defined above) of less than or equal to 0)	–	–
CC(=O)C1=C(C)C2CC3(C1)C(C)CCC3C2(C)C (stereo not drawn) [1-(2,6,6,8-tetramethyltricyclo [5.3.1.0̂{1,5}]undec-8-en-9-yl)ethanone]	A (Group A materials that assist biofilm detachment are defined as those having a PDV (as defined above) of at least 9)	–	–
CCC(=O)OC1CC2CC1C1C=CCC21 (stereo not drawn) [tricyclo[5.2.1.0̂{2,6}]dec-4-en-8-yl propanoate]	B (Group B materials that are non-active to biofilm detachment are defined as those having a PDV (as defined above) of less than 9 and greater than 0)	–	–
